In ChEMBL document CHEMBL4011611, “Plumbagin reduces osteopontin-induced invasion through inhibiting the Rho-associated kinase signaling pathway in A549 cells and suppresses osteopontin-induced lung metastasis in BalB/c mice” (Bioorg Med Chem Lett, 2017):
Calls of active or inactive are those of the source. No cut-off for these calls is given here.

Experiments:
[1] = Cytotoxicity against human A549 cells after 24 hrs by MTT assay; format: cell-based; conditions: read-out: MNCC
A549 [2] = experiment: Cytotoxicity against human A549 cells assessed as reduction in cell viability at 2 to 8 uM after 24 hrs by MTT assay; format: cell-based; conditions: a549, 24 h
A549 [3] = experiment: Inhibition of FAK/AKT/ROCK in human A549 cells assessed as reduction in osteopontin-induced cell motility at 1 uM preincubated for 30 mins followed by osteopontin addition measured after 24 hrs by Diff-quick staining based matrigel-mediated Boyden chamber assay relative to control
A549 [4] = experiment: Inhibition of FAK/AKT/ROCK in human A549 cells assessed as reduction in osteopontin-induced cell motility at 2 uM preincubated for 30 mins followed by osteopontin addition measured after 24 hrs by Diff-quick staining based matrigel-mediated Boyden chamber assay relative to control
Homo sapiens [5] = organism: Homo sapiens; experiment: Inhibition of FAK/AKT/ROCK in human H1299 cells assessed as reduction in osteopontin-induced cell motility at 1 to 2 uM preincubated for 30 mins followed by osteopontin addition measured after 24 hrs by Diff-quick staining based matrigel-mediated Boyden chamber assay
Homo sapiens [6] = organism: Homo sapiens; experiment: Inhibition of FAK/AKT/ROCK in human H1299 cells assessed as reduction in osteopontin-induced cell invasion at 1 to 2 uM preincubated for 30 mins followed by osteopontin addition measured after 24 hrs by Diff-quick staining based matrigel-mediated Boyden chamber assay
A549 [7] = experiment: Inhibition of FAK/AKT/ROCK in human A549 cells assessed as reduction in osteopontin-induced cell invasion at 1 uM preincubated for 30 mins followed by osteopontin addition measured after 24 hrs by Diff-quick staining based matrigel-mediated Boyden chamber assay relative to control
A549 [8] = experiment: Effect on total FAK expression levels in human A549 cells at 1 to 2 uM measured after 15 mins by Western blot method; format: ADME, cell-based; conditions: a549, 0.25 h
A549 [9] = experiment: Inhibition of FAK/AKT/ROCK in human A549 cells assessed as reduction in osteopontin-induced cell invasion at 2 uM preincubated for 30 mins followed by osteopontin addition measured after 24 hrs by Diff-quick staining based matrigel-mediated Boyden chamber assay relative to control
A549 [10] = experiment: Effect on total AKT expression level in human A549 cells at 1 to 2 uM after 15 mins by Western blot method; format: ADME, cell-based; conditions: a549, 0.25 h
A549 [11] = experiment: Inhibition of FAK/AKT/ROCK in human A549 cells assessed as reduction in osteopontin-induced lamellipodia formation at 2 uM after 24 hrs by rhodamine phalloidin/DAPI staining based confocal microscopic analysis; format: cell-based
A549 [12] = experiment: Effect on total cofilin protein expression level in human A549 cells at 1 to 2 uM after 24 hrs by Western blot method; format: ADME, cell-based; conditions: a549, 24 h
A549 [13] = experiment: Anti-invasive activity in human A549 cells assessed as reduction in osteopontin-induced ROCK1 expression after 24 hrs by Western blot method; format: functional, cell-based
A549 [14] = experiment: Inhibition of FAK/AKT/ROCK in human A549 cells assessed as reduction in osteopontin-induced LIMK1/2 phosphorylation after 24 hrs by Western blot method; format: cell-based
A549 [15] = experiment: Inhibition of FAK/AKT/ROCK in human A549 cells assessed as reduction in osteopontin-induced cofilin phosphorylation after 24 hrs by Western blot method; format: cell-based
A549 [16] = experiment: Effect on total LIMK2 expression level in human A549 cells at 1 to 2 uM after 24 hrs by Western blot method; format: ADME, cell-based; conditions: a549, 24 h
[17] = target: Focal adhesion kinase 1 (Homo sapiens) (UniProt Q05397); experiment: Inhibition of osteopontin-induced FAK phosphorylation in human A549 cells at 1 to 2 uM after 15 mins by Western blot method; format: cell-based
Sequence of Focal adhesion kinase 1 (Homo sapiens) (Q05397 2-1052 limits assumed): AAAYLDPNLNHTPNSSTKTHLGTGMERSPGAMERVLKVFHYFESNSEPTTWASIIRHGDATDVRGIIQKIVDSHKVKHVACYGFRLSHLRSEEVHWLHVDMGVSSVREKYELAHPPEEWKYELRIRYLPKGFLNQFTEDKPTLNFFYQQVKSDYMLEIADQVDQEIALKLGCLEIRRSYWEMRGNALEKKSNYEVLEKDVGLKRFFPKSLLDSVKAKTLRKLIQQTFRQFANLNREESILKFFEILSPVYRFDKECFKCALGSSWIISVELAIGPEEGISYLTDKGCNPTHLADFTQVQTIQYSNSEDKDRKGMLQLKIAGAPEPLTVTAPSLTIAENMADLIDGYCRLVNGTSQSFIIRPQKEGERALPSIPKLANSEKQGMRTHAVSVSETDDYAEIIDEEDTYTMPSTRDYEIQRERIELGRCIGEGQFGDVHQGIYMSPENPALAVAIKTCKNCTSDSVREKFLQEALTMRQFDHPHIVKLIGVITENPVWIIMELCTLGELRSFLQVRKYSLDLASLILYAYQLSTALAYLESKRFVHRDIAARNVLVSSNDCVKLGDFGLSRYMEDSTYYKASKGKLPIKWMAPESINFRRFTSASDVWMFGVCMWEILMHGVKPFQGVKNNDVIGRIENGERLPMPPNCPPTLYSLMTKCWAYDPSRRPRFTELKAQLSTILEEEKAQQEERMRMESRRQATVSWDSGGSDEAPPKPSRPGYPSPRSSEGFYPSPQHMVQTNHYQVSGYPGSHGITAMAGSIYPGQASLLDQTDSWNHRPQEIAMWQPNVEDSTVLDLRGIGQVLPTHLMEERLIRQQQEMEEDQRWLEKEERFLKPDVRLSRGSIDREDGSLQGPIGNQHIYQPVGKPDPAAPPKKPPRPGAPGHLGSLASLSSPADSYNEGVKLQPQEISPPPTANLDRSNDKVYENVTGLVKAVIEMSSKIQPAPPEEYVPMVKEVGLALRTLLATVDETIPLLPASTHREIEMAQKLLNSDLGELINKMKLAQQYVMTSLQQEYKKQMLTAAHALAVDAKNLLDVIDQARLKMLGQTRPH

[18] = target: RAC-alpha serine/threonine-protein kinase (Homo sapiens) (UniProt P31749); experiment: Inhibition of osteopontin-induced AKT phosphorylation in human A549 cells at 1 to 2 uM after 15 mins by Western blot method; format: cell-based
Sequence of RAC-alpha serine/threonine-protein kinase (Homo sapiens) (P31749 whole entry): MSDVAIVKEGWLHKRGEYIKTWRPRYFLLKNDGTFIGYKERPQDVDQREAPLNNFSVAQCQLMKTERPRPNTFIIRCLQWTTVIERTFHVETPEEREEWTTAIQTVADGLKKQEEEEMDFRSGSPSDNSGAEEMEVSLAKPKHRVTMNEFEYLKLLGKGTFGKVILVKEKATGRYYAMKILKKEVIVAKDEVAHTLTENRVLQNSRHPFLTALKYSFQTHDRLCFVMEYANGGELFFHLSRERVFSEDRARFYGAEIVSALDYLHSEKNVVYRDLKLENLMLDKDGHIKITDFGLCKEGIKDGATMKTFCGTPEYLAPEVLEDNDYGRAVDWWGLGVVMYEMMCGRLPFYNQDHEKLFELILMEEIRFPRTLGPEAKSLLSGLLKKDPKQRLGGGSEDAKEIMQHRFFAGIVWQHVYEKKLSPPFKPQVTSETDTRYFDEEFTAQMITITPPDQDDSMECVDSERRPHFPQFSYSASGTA

Mus musculus = experiment: Toxicity in BalB/c nude mouse assessed as change in body weight at 5 mg/kg, ip administered once daily for 8 weeks measured every week of compound dosing; format: organism-based; conditions: in vivo, 1344 h
A549 [19] = experiment: Anticancer activity against human A549 cells xenografted in BalB/c nude mouse assessed as reduction in osteopontin-induced lung metastasis at 5 mg/kg, ip administered once daily for 8 weeks by India ink staining based method; format: functional, organism-based

SMILES: CC1=CC(=O)c2c(O)cccc2C1=O [PLUMBAGIN]
- MNTC at 24 h [1]: ≤ 2000 nM
- Activity (A549 [2]): Dose-dependent effect
- inhibition (A549 [3]): 52%
- inhibition (A549 [4]): 74%
- inhibition (Homo sapiens [5]): Active
- inhibition (Homo sapiens [6]): Active
- inhibition (A549 [7]): 38%
- Activity (A549 [8]): Non-Toxic
- inhibition (A549 [9]): 67%
- Activity (A549 [10]): Non-Toxic
- inhibition (A549 [11]): Active
- Activity (A549 [12]): Non-Toxic
- Activity (A549 [13]): Dose-dependent effect
- inhibition (A549 [14]): Dose-dependent effect
- inhibition (A549 [15]): Dose-dependent effect
- Activity (A549 [16]): Non-Toxic
- inhibition [17]: Active
- inhibition [18]: Active
- Activity (Mus musculus): Non-Toxic
- Activity (A549 [19]): Active
